Source: patent US11083717B2, “Compositions and methods for drug sensitization of parasites” (The Texas A&M University System, priority 2015, dated 2021)

How the values were obtained:
CP = assay: Calf study of CP infection; type: in vivo, calves
Protocol: New born calves are susceptible to CP infection. They can develop severe diarrhea like humans. Calves were inoculated with 5×10^7 CP oocysts/calf on day 0. Calves had diarrhea in both the groups at onset of dosing. Treatment was started on day 3. Calves were given NZ-369 @ 8.5 mg/kg every 12 hrs for 5 days. Fecal volume, urine volume, daily clinical evaluation, fecal consistency scores and weight gains were evaluated.

Eimeria = assay: Coccidiosis in broiler chicks, duodenal lesion scores; type: in vivo; details: 20 mg/bird daily by oral gavage, FIG. 7
Protocol: To determine the effects of NZ-366 and NZ-369 on coccidiosis in broiler chicks, experimental animals were divided into 4 treatment groups: Unmedicated (UNM), those receiving the experimental compounds (366 and 369); and those receiving Salinomycin (SAL).
Compounds NZ-366 and NZ-369 were administered at a dose of 20 mg/bird by oral gavage daily beginning from 11 days post-hatching. Salinomycin was administered in-feed beginning from 10 days post-hatching. Broilers were administered a 1000× dose of coccidiosis vaccine by oral gavage at 13 days post-hatching.
Lesion scores in the duodenum were lower in broiler chicks administered NZ-369 as compared to unmedicated broilers and those administered NZ-366. […] In FIG. 7, lesion scores expressed as the mean±SEM from 24 broilers per treatment.

[1] = biological target: Human ether-a-go-go-related gene (hERG) (Homo sapiens, UniProt Q12809); assay: hERG test (potential cardiotoxicity); type: biochemical; details: read-out: hERG (Abbvie)
Kinetic solubility = type: physicochemical
Cryptosporidium parvum = tested on: Cryptosporidium parvum
Protocol: The anticryptosporidial activity of the in vitro inhibitors was assessed in the IL-12 knockout mouse model that resembles the acute human disease (Ehigiator H N, Romagnoli P, Borgelt K, Fernandez M, McNair N, Secor W E, Mead J R. 2005. Mucosal cytokine and antigen-specific responses to Cryptosporidium parvum in IL-12p40 KO mice. Parasite Immunol. 27: 17-28; Campbell L D, Stewart J N, Mead J R. 2002. Susceptibility to Cryptosporidium parvum infections in cytokine- and chemokine-receptor knockout mice. J. Parasitol. 88:1014-1016). The protocol was approved by the Institutional Animal Care and Use Committees of Emory University, the AtlantaVAMedical Center, and Brandeis University. Mice (6 to 10 per group) were inoculated with 1,000 purified CP oocysts (Iowa isolate, from cattle). Treatment by gavage began 4 h postinfection with either vehicle (5% dimethyl sulfoxide (DMSO) in canola oil), 50-100 mg/kg compound, or 2,000 mg/kg paromomycin. Compounds were given for 7 days, and mice were sacrificed on day 8 (peak infection). Parasite load was quantified by fluorescence-activated cell sorting (FACS) assays for the presence of the oocysts in the feces at days 0, 4, and 7. Fecal pellets from individual mice were routinely collected daily and homogenized in adjusted volumes of 2.5% potassium dichromate. Samples were processed individually. Aliquots (200 ul) of vortexed samples were processed over microscale sucrose gradients as previously described (Arrowood M J, Hurd M R, Mead J R. 1995. A new method for evaluating experimental cryptosporidial parasite loads using immunofluorescent flowcytometry. J. Parasitol. 81:404-409). The oocyst-containing fraction was collected, washed, and treated with monoclonal antibody (OW5O-FITC) for 20 min. Samples were adjusted to 600 ul, and a portion (100 ul) was assayed with a 102-s sampling interval using logical gating of forward/side scatter and OW5O-FITC fluorescence signal on a Becton, Dickinson FACScan flow cytometer. Flow cytometry data were evaluated by analysis of variance (KaleidaGraph (Synergy Software, Reading Pa.); Microsoft Excel (Microsoft Corporation, Redmond, Wash.)).
NZ-366 (50 mg/kg) and NZ-369 (100 mg/kg) were administered via gavage in a single daily dose to IL-12 knockout mice that were infected with 1,000 CP oocysts. Additional control groups included those treated with single daily doses of vehicle, and paromomycin (Prm) (2,000 mg/kg), by oral gavage.

Plasma protein binding = type: in vitro ADME; details: mouse, mice, read-out: PPB (converted)
S. cerevisiae = assay: in vitro; details: Saccharomyces cerevisiae
human fibroblast = assay: in vitro; details: human
[2] = MCLint in vitro intrinsic clearance, mouse (MLM); type: in vitro ADME
[3] = NZ-366 50 mg/kg, NZ-369 100 mg/kg, paromomycin 2,000 mg/kg

Chain of Human ether-a-go-go-related gene (hERG) (Q12809 whole entry): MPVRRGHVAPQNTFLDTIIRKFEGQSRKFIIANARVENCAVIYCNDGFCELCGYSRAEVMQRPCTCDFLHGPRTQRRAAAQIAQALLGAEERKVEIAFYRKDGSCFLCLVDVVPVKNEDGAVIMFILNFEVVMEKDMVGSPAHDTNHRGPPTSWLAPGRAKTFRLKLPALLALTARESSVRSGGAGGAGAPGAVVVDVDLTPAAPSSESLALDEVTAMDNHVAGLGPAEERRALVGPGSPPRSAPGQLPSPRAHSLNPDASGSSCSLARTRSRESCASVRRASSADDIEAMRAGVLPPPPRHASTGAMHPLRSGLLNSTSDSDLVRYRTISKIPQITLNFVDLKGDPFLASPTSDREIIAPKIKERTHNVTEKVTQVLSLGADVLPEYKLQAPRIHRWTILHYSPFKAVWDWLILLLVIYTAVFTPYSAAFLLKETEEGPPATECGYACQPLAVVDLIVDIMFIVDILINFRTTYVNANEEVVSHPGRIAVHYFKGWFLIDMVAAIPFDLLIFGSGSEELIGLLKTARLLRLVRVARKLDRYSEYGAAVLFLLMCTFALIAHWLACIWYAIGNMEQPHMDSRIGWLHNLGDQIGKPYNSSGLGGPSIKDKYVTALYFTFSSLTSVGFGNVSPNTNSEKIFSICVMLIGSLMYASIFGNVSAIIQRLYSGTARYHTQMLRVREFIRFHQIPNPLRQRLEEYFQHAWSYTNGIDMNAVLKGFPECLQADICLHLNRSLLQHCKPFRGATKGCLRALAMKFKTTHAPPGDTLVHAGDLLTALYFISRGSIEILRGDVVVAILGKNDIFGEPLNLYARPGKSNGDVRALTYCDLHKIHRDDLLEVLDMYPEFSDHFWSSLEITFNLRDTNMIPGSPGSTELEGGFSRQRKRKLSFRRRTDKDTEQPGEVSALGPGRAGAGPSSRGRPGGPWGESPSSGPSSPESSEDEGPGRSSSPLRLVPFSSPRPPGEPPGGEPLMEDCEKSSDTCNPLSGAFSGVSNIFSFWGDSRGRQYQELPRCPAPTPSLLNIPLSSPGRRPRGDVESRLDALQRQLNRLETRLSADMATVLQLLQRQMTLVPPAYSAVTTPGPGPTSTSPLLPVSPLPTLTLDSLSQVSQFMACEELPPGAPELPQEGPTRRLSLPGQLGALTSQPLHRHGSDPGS

CNC(=O)C(C)c1ccc(Oc2nc3ccc(Cl)cc3s2)cc1 (centres unmarked) [NZ-369, 2-{4-[(6-chloro-1,3-benzothiazol-2-yl)oxy]phenyl}-N-methylpropanamide]
fecal volume vs control (CP; 8.5 mg/kg every 12 hrs for 5 days from day 3, through day 8 post infection, FIG. 2): marked reduction in fecal volume
clinical evaluation scores (CP; 8.5 mg/kg every 12 hrs for 5 days, FIG. 4): higher clinical evaluation scores and greater improvement post-infection
weight over the trial period vs control calf (CP; 8.5 mg/kg every 12 hrs for 5 days, FIG. 6): maintained their weight
fecal consistency score vs control calves (CP; 8.5 mg/kg every 12 hrs for 5 days, days 4-7 post infection, FIG. 5): lower fecal consistency score
urine output vs control calves (CP; 8.5 mg/kg every 12 hrs for 5 days, except on day 4 post-infection, FIG. 3): Greater urine output
lesion scores in the duodenum vs unmedicated broilers and NZ-366 (Eimeria): lower
reduction of duodenal lesion scores compared with Salinomycin (Eimeria; Salinomycin in-feed): comparable to broiler chicks administered Salinomycin
IC50 [1]: > 30 µM
Kinetic Sol. (Kinetic solubility): 86 µM
Mouse Model (Mead) DPI7 (Cryptosporidium parvum; @100 mg/kg, day 7 post infection): DPI7 = 70%
overt toxicity in the treated infected mice (Cryptosporidium parvum; NZ-366 50 mg/kg, NZ-369 100 mg/kg, 7 days): no overt toxicity
anticryptosporidial activity, fecal oocysts day 7 post infection (Cryptosporidium parvum; NZ-366 50 mg/kg, NZ-369 100 mg/kg, gavage, single daily dose, FIG. 1): have anticryptosporidial activity
effectiveness compared with paromomycin after a single dose (Cryptosporidium parvum; [3]): more effective than paromomycin
effectiveness compared with paromomycin over the course of the study (Cryptosporidium parvum; [3]): equally as effective as paromomycin
fraction unbound (Plasma protein binding): 0.015
concentrations at which not toxic, S. cerevisiae cytotoxicity testing (S. cerevisiae): ≥ 100 µM
IC50 (in vitro; Saccharomyces cerevisiae): > 100 µM
IC50 (in vitro; human): > 100 µM
concentrations at which not toxic, human fibroblast cytotoxicity testing (human fibroblast): ≥ 100 µM
MCLint (mL/min/g liver), MLM [2]: MLM = 3.3 mL/min/g liver
